In patent US9849116B2 (KNOPP BIOSCIENCES LLC, priority 2008, dated 2017):
Read-outs that look alike come from different tables or passages of the source.

Key:
[1] = system: monkeys treated with MPTP; conditions: cited from earlier work
D1 dopamine receptor = D1 dopamine receptor (Homo sapiens, UniProt P21728)
Method: (§1) These concentrations were tested in cell lines expressing select human cloned dopamine receptors (D2S, D3).

D5 dopamine receptor = D5 dopamine receptor (Homo sapiens, UniProt P21918)
D5 dopamine receptor, sequence (P21918 whole entry): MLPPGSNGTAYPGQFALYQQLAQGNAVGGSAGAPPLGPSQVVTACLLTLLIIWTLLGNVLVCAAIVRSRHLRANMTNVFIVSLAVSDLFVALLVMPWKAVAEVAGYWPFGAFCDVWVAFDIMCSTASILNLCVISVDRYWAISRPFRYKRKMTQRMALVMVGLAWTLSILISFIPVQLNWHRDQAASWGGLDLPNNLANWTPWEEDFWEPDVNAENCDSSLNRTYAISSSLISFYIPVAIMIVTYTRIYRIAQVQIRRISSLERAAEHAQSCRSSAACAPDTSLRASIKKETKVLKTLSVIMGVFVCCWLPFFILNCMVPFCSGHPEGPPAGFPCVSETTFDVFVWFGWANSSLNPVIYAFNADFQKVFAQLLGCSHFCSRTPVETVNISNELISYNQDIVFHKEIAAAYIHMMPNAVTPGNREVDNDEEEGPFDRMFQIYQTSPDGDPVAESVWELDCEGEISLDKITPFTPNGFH
Method: as §1

[2] = cited from earlier work
monkeys = conditions: single oral dose; cited from earlier work
human subjects = conditions: cited from earlier work
[3] = system: Parkinson's disease patients; conditions: treatment of Parkinson's disease; cited from earlier work
male beagle dogs = conditions: based on dog data
[4] = system: monkeys treated with MPTP; conditions: monkey, in vivo
rodents [5] = conditions: in vivo
dogs = conditions: single oral dose; cited from earlier work
rodents [6] = conditions: single oral dose; cited from earlier work
[7] = system: restless legs syndrome patients; conditions: treatment of restless legs syndrome; cited from earlier work
D2 dopamine receptor = conditions: read-out: D2 binding, IC50, cited from earlier work
[8] = Lit.* Schneider & Mierau 1987 J. Med. Chem. 30: 494-498
[9] = Lit.** Wong & Shrikhande 2003 Society for Neuroscience Abstracts

D1 dopamine receptor, sequence (P21728 whole entry): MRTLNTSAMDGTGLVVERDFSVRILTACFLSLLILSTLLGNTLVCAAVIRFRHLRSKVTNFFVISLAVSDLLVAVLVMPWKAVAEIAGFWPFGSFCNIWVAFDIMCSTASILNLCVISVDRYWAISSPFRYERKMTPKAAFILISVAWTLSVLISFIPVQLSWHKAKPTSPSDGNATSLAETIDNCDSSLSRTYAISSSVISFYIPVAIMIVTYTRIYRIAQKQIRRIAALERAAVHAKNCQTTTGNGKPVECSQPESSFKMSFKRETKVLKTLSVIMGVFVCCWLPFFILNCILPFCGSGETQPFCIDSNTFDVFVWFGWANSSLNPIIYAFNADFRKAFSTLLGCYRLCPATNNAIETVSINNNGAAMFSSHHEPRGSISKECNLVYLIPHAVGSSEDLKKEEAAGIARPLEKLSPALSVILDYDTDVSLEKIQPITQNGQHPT

Structure (SMILES)	lowest effective oral dose [1]	interaction with D1 dopamine receptor (D1 dopamine receptor)	interaction with D5 dopamine receptor (D5 dopamine receptor)	MRTD ([2]; FDA MRTD database)	MRTD ([2]; for a 70 lb. person)	dose at which major excitation was displayed (monkeys)	dose shown to cause somnolence (human subjects; human subjects)	starting daily dose not tolerated (human subjects; naïve patient)	lowest effective oral dose with a significant effect versus placebo [3]	human equivalent dose of the NOAEL for a 70 kg individual (male beagle dogs)	human equivalence dose of the MTD (male beagle dogs; 70 kg human subject)	human dose equivalent to the lowest effective oral dose in monkeys [4]	human dose equivalent to the lowest effective oral dose in monkeys, 70 kg individual [4]	human dose equivalent to the lethal dose in rodents (rodents [5])	human dose equivalent to the lethal dose in rodents, 70 kg individual (rodents [5])	dose at which vomiting occurred (and above) (dogs)	doses at which deaths occurred (and above) (rodents [6])	lowest effective dose with a significant effect versus placebo [7]	IC50 (D2 dopamine receptor; [8])	IC50 (D2 dopamine receptor; [9])
CCCN[C@H]1CCc2nc(N)sc2C1 [(S)-pramipexole, (6S)-4,5,6,7-tetrahydro-N6-propyl-2,6-benzothiazole-diamine]	0.053 mg/kg	no significant interaction	no significant interaction	[…]	[…]	3.5 mg/kg	[…]	[…]	[…]	0.05 mg	0.30 mg	[…]	[…]	[…]	500 to 850 mg	[…]	[…]	[…]	–	–
